Results published in patent publication US8691870B2, “Use of isothiocyanates for treating cancer” (Mackay Memorial Hospital, priority 2011, dated 2014).
Read-outs that look alike come from different tables or passages of the source.

Legend:
Type in all cases: cell-based, human
81T/VGH cells = assay: MTT cell viability assay on 81T/VGH cells; parameters: key to Cell viability (MTT reading), I / Cell viability (MTT reading), II / Cell viability (MTT reading), III / Cell viability (MTT reading), Average: absorbance at 570 nm; settings: 48 hours; for Cell viability (MTT reading), I: replicate I; for Cell viability (MTT reading), II: replicate II; for Cell viability (MTT reading), III: replicate III
Description: (§1) Cell lines used in the present disclosure include human chronic myelogenous leukemia (CML) cell line K562, Imatinib-resistant K562 cell line K562R, human pancreatic carcinoma, epithelial-like cell line PANC-1, human pancreatic cancer cell line BxPc-3, human large cell lung cancer cell line SEG-1, human esophageal squamous cell carcinoma line 81T/VGH and human esophageal adenocarcinoma line BE-3. Each cell lines were cultured and maintained in Dulbecco's modified Eagle media (DMEM) supplemented with 10% fetal calf serum, 100 IU/ml penicillin, 100 μg/ml streptomycin, and 2 mM glutamine in 5% CO2 at 37° C.
(§2) The absorbance of the solution at 570 nm was measured by spectrophotometer.

BxPC-3 cells = assay: Radiation treatment and clonogenic assay, BxPC-3 cells
Description: (§3) The drugs were then washed out, and cells were subject to radiation treatment. Specifically, 6 MeV electron beam energy was delivered by a linear accelerator (Clinac 1800, Varian Associates, Inc., Palo Alto, Calif., USA) with a rate of 2.4 Gy/min at various dose including 0, 0.5, 1, 2 and 4 Gy in a single fraction. Full electron equilibrium was ensured for each fraction by a parallel plate PR-60C ionization chamber ([…], Inc., Ramsey, N.Y., USA).
(§4) After radiation treatment, cells were returned to the culture for another 10 to 14 days; then were stained with 3% crystal violet and the numbers of colony (≧50 cells) were counted.
(§5) The colony is defined to consist of at least 50 cells.

PANC-1 cells [1] = assay: Radiation treatment and clonogenic assay, PANC-1 cells
Description: as §3, §4, §5

p-Cdc2 kinase = assay: Immunoblot analysis of p-cdc2 kinase in K562R cells; settings: FIG. 9
Description: (§6) Cultured cells were lysed by use of well known lysing buffer, and total amount of proteins were determined by Bradford method. […] The separated proteins were then transferred to nitrocellulose membrane and non-specific binding was removed by TBST buffer (0.8% NaCl, 0.02% KCl, 25 mM Tris-HCl/pH 8.0 and 0.1% Tween-20) containing 4% skim milk. Antibodies including p-Plk-1, p-Chk-1, p-Chk-2, p-Cdc2, GAPDH, α-tubulin, β-tubulin, and p-histone H3 (purchased from Transduction Laboratories, Lexington, Ky., USA), were respectively dissolved in TBST buffer containing 2% skim milk and incubated with the separated protein bands at 4° C. for at least over night; followed by incubation with horseradish conjugated secondary antibodies at room temperature for about 30 min, and then detected by ECL chemiluminesance detection kit (Amersham Pharmacia Biotech, US).

BE-3 cells = assay: MTT cell viability assay on BE-3 cells; parameters: key to Cell viability (MTT reading), I / Cell viability (MTT reading), II / Cell viability (MTT reading), Average / Cell viability (MTT reading), III: absorbance at 570 nm; settings: for Cell viability (MTT reading), I: replicate I; for Cell viability (MTT reading), II: replicate II
Description: as §1, §2

[2] = tested on: imatinib resistant CML K562R cells; assay: Cell cycle analysis (flow cytometry) of imatinib resistant CML K562R cells; settings: 24 hours
Description: The CML cell line, K562R, was cultured in the presence of a continuous low dose of imatinib mesylate, which is also termed STI-571, to generate their resistance to imatinib. In operation, K562R cells were maintained in the DMEM supplemented with 10% fetal calf serum (FCS), 100 IU/ml penicillin, 100 μg/ml streptomycin, 2 mM glutamine and 0.2 μM imatinib in 5% CO2 at 37° C.
(§7) The fixed cells were then warmed up to room temperature and treated with RNAase A for about 30 min. Precipitated cells were collected by centrifugation and re-suspended in a buffer solution containing propidium iodine (20 μg/ml) before being subject to flow cytometry analysis, where cell numbers at respective cell cycles were determined.
(§8) The imatinib resistant human chronic myelogenous leukemia (CML) cell line K562R was induced by procedures described above in the “Materials and Methods” Section. Anti-proliferative activity of I7557 and I7557 were respectively assessed by cell viability and cell cycle analysis, as well as by immunoblot and Liu's Staining.

[3] = tested on: imatinib resistant CML K562R cells; assay: Liu's staining, morphology of imatinib resistant CML K562R cells; settings: 20 μM, indicates apoptosis and mitotic arrest
Description: as §8

[4] = tested on: phosphorylated histone H3; assay: Immunoblot analysis of phosphorylated histone H3 in K562R cells; settings: FIG. 10
Description: as §6

p-Plk-1 = assay: Immunoblot analysis of phosphorylated Plk-1 in K562R cells; settings: FIG. 6
Description: as §6

p-Chk-2 = assay: Immunoblot analysis of p-Chk-2 in K562R cells; settings: FIG. 8
Description: as §6

p-Chk-1 = assay: Immunoblot analysis of p-Chk-1 in K562R cells; settings: FIG. 7
Description: as §6

PANC-1 cells [5] = assay: Cell cycle analysis of PANC-1 cells; settings: 24 hours
Description: as §7

β-tubulin = assay: Immunoblot analysis of β-tubulin in K562R cells; settings: FIG. 4
Description: as §6

cyclin B1 = assay: Immunoblot analysis of cyclin B1 in K562R cells; settings: FIG. 5
Description: as §6

SMILES: CS(=O)(=O)CCCCCCN=C=S [I7557, 6-methylsulfonylhexyl isothiocyanate]
- Cell viability (MTT reading), Average (81T/VGH cells; 10 μM): 1.514 ± 0.104
- Cell viability (MTT reading), I (81T/VGH cells; 10 μM): 1.324
- Cell viability (MTT reading), II (81T/VGH cells; 10 μM): 1.682
- Cell viability (MTT reading), III (81T/VGH cells; 10 μM): 1.537
- Cell viability (MTT reading), Average (81T/VGH cells; 20 μM): 0.965 ± 0.086
- Cell viability (MTT reading), I (81T/VGH cells; 20 μM): 0.804
- Cell viability (MTT reading), II (81T/VGH cells; 20 μM): 0.991
- Cell viability (MTT reading), III (81T/VGH cells; 20 μM): 1.100
- inhibition at 10 µM (81T/VGH cells; Homo sapiens, 10 μM): 30.6 ± 5.18%
- inhibition at 20 µM (81T/VGH cells; Homo sapiens, 20 μM): 55.4 ± 6.11%
- Number of colonies (clonogenic assay) (BxPC-3 cells; BxPC-3, 5 μM pre-treatment 24 hours, radiation 0 Gy): 33
- Number of colonies (clonogenic assay) (BxPC-3 cells; BxPC-3, 5 μM pre-treatment 24 hours, radiation 0.5 Gy): 37
- Number of colonies (clonogenic assay) (BxPC-3 cells; BxPC-3, 5 μM pre-treatment 24 hours, radiation 1 Gy): 39
- Number of colonies (clonogenic assay) (BxPC-3 cells; BxPC-3, 5 μM pre-treatment 24 hours, radiation 2 Gy): 29
- Number of colonies (clonogenic assay) (BxPC-3 cells; BxPC-3, 5 μM pre-treatment 24 hours, radiation 4 Gy): 9
- Number of colonies (clonogenic assay) (BxPC-3 cells; BxPC-3, 10 μM pre-treatment 24 hours, radiation 0 Gy): 16
- Number of colonies (clonogenic assay) (BxPC-3 cells; BxPC-3, 10 μM pre-treatment 24 hours, radiation 0.5 Gy): 15
- Number of colonies (clonogenic assay) (BxPC-3 cells; BxPC-3, 10 μM pre-treatment 24 hours, radiation 1 Gy): 8
- Number of colonies (clonogenic assay) (BxPC-3 cells; BxPC-3, 10 μM pre-treatment 24 hours, radiation 2 Gy): 7
- Number of colonies (clonogenic assay) (BxPC-3 cells; BxPC-3, 10 μM pre-treatment 24 hours, radiation 4 Gy): 1
- susceptibility of cells to radiation treatment (BxPC-3 cells; BxPc-3, 10 μM): enhancing the susceptibility
- Number of colonies (clonogenic assay) (PANC-1 cells [1]; PANC-1, 5 μM pre-treatment 24 hours, radiation 0 Gy): 60
- Number of colonies (clonogenic assay) (PANC-1 cells [1]; PANC-1, 5 μM pre-treatment 24 hours, radiation 0.5 Gy): 63
- Number of colonies (clonogenic assay) (PANC-1 cells [1]; PANC-1, 5 μM pre-treatment 24 hours, radiation 1 Gy): 59
- Number of colonies (clonogenic assay) (PANC-1 cells [1]; PANC-1, 5 μM pre-treatment 24 hours, radiation 2 Gy): 48
- Number of colonies (clonogenic assay) (PANC-1 cells [1]; PANC-1, 5 μM pre-treatment 24 hours, radiation 4 Gy): 20
- susceptibility of cells to radiation treatment (PANC-1 cells [1]; PANC-1, 10 μM): enhancing the susceptibility
- Number of colonies (clonogenic assay) (PANC-1 cells [1]; PANC-1, 10 μM pre-treatment 24 hours, radiation 0 Gy): 41
- Number of colonies (clonogenic assay) (PANC-1 cells [1]; PANC-1, 10 μM pre-treatment 24 hours, radiation 0.5 Gy): 26
- Number of colonies (clonogenic assay) (PANC-1 cells [1]; PANC-1, 10 μM pre-treatment 24 hours, radiation 1 Gy): 35
- Number of colonies (clonogenic assay) (PANC-1 cells [1]; PANC-1, 10 μM pre-treatment 24 hours, radiation 2 Gy): 19
- Number of colonies (clonogenic assay) (PANC-1 cells [1]; PANC-1, 10 μM pre-treatment 24 hours, radiation 4 Gy): 6
- level of p-cdc2 kinase vs control (p-Cdc2 kinase): decreased
- Cell viability (MTT reading), Average (BE-3 cells; BE-3, 10 μM, 48 hours): 1.635 ± 0.078
- Cell viability (MTT reading), I (BE-3 cells; BE-3, 10 μM, 48 hours): 1.581
- Cell viability (MTT reading), II (BE-3 cells; BE-3, 10 μM, 48 hours): 1.534
- Cell viability (MTT reading), Average (BE-3 cells; BE-3, 20 μM, 48 hours): 1.151 ± 0.028
- Cell viability (MTT reading), I (BE-3 cells; BE-3, 20 μM, 48 hours): 1.105
- Cell viability (MTT reading), II (BE-3 cells; BE-3, 20 μM, 48 hours): 1.147
- Cell viability (MTT reading), III (BE-3 cells; BE-3, 20 μM, 48 hours, replicate III): 1.201
- inhibition at 10 µM (BE-3 cells; Homo sapiens, BE-3, 10 μM, 48 hours): 26.8 ± 1.05%
- inhibition at 20 µM (BE-3 cells; Homo sapiens, BE-3, 20 μM, 48 hours, read-out: % of inhibition): 48.4 ± 1%
- inhibition at 20 µM (BE-3 cells; Homo sapiens, BE-3, 20 μM, read-out: cancerous cells' growth inhibition): ~50%
- Cell Cycle (%) G0/G1 ([2]; 5 μM): 30.79 ± 2.28%
- Cell Cycle (%) G2/M ([2]; 5 μM): 22.84 ± 0.60%
- Cell Cycle (%) S ([2]; 5 μM): 46.38 ± 1.73%
- Cell Cycle (%) Sub-G1% ([2]; 5 μM): 0.52 ± 0.07%
- Cell Cycle (%) G0/G1 ([2]; 10 μM): 30.52 ± 0.96%
- Cell Cycle (%) G2/M ([2]; 10 μM): 18.40 ± 1.16%
- Cell Cycle (%) S ([2]; 10 μM): 51.08 ± 0.36%
- Cell Cycle (%) Sub-G1% ([2]; 10 μM): 1.18 ± 0.08%
- Cell Cycle (%) G0/G1 ([2]; 20 μM): 11.54 ± 6.51%
- Cell Cycle (%) G2/M ([2]; 20 μM): 65.10 ± 8.16%
- Cell Cycle (%) S ([2]; 20 μM): 23.36 ± 2.45%
- Cell Cycle (%) Sub-G1% ([2]; 20 μM): 5.33 ± 1.46%
- Cell morphology after Liu's staining [3]: round up with an appearance of a balloon
- levels of phosphorylated histone H3 vs control cells [4]: significantly higher
- level of phosphorylated Plk-1 vs control (p-Plk-1): increased
- level of p-Chk-2 vs control (p-Chk-2): decreased
- level of p-Chk-1 vs control (p-Chk-1): decreased
- Cell Cycle (%) G0/G1 (PANC-1 cells [5]; 10 μM): 45.43 ± 1.27%
- Cell Cycle (%) G2/M (PANC-1 cells [5]; 10 μM): 28.38 ± 2.41%
- Cell Cycle (%) S (PANC-1 cells [5]; 10 μM): 26.19 ± 3.28%
- Cell Cycle (%) Sub-G1% (PANC-1 cells [5]; 10 μM): 0.79 ± 0.05%
- Cell Cycle (%) G0/G1 (PANC-1 cells [5]; 20 μM): 24.71 ± 2.98%
- Cell Cycle (%) G2/M (PANC-1 cells [5]; 20 μM): 55.84 ± 0.63%
- Cell Cycle (%) S (PANC-1 cells [5]; 20 μM): 19.45 ± 3.32%
- Cell Cycle (%) Sub-G1% (PANC-1 cells [5]; 20 μM): 2.05 ± 0.44%
- β-tubulin levels vs control cells (β-tubulin): lowered
- level of cyclin B1 vs control (cyclin B1): increased
